Structures are written as SMILES. Values after ≈ are worked out from the molar mass of the structure shown. “Also recorded” adds a separate entry of the source.

The test system of test [1] is six staphylococcal strains (2 S. epidermidis, 2 S. haemolyticus and 2 S. aureus). In words: Susceptibility testing under planktonic growth condition, EUCAST breakpoints. Format: cell-based. The conditions noted are these: all 6 strains; EUCAST criteria. As for the experimental part: The six staphylococcal strains (2 S. epidermidis, 2 S. haemolyticus and 2 S. aureus) used in this study were selected based on their previously known biofilm forming capacity (Table 1).
(§1) Bacteria were grown overnight at 37° C. in cation adjusted Mueller-Hinton II Broth (MHIIB).
We determined the MICs of oxacillin, gentamicin, tetracycline, vancomycin and linezolid using E-test (AB Biodisk, Solna, Sweden) and MICs of rifampicin using broth microdilution assay. Breakpoints were interpreted according to EUCAST criteria. We selected 3 different SAMPs (Compounds A, B and C; Lytix Biopharma, Tromsø, Norway—see FIG. 1) based on previously known antimicrobial activities, and determined their exact MICs with broth microdilution assay. All 3 SAMPs are tripeptides with two arginine residues providing their cationic moieties (FIG. 1). The lipophilic bulk is provided by a modified tryptophane derivate. The difference between the compounds is the size of the C-terminal modification; Compound A has the smallest and Compound B has the largest C-terminal modification (FIG. 1). The molecular weights of the SAMPs are in the range of 700-800 Dalton.

In test [2] the test system is Staphylococcus epidermidis RP62A ATCC 35984. In words: microbe, parasite or virus in culture. The procedure:
as §1
(§2) We determined the MICs of oxacillin, gentamicin, tetracycline, vancomycin and linezolid using E-test (AB Biodisk, Solna, Sweden) and MICs of rifampicin using broth microdilution assay. Breakpoints were interpreted according to EUCAST criteria. […] All 3 SAMPs are tripeptides with two arginine residues providing their cationic moieties (FIG. 1). The lipophilic bulk is provided by a modified tryptophane derivate. […] The molecular weights of the SAMPs are in the range of 700-800 Dalton.

The subject of test [3] is Staphylococcus aureus PIA 9. The experiment in a line: microbe, parasite or virus in culture. As for the experimental part:
as §1, §2

Test [4] has as its system Staphylococcus aureus PIA90. In words: microbe, parasite or virus in culture. The procedure: as §1, §2
In test [5] the test system is Staphylococcus epidermidis TUH 08-16. The experiment in a line: microbe, parasite or virus in culture. As for the experimental part: as §1, §2
The subject of test [6] is Staphylococcus haemolyticus TUH 51-03. In words: microbe, parasite or virus in culture. The procedure: as §1, §2
Test [7] relates to Staphylococcus haemolyticus TUH 51-07. The experiment in a line: microbe, parasite or virus in culture. As for the experimental part:
as §1, §2

Test [8] deals with S. haemolyticus TUH 51-07 biofilm. The experiment in a line: Biofilm metabolic activity, Alamar blue reduction. In kind it is cell-based, Staphylococcus haemolyticus. The conditions noted are these: 500 mg/L, 24 h. The procedure: (§3) Biofilm formation was induced in 96-well flat bottom microtitre plates (Nunclon Surface, NUNC, Roskilde, Denmark). First, overnight cultures were diluted 1:100 in MHIIB (S. epidermidis and S. haemolyticus) or tryptic soy broth (TSB) with 5% glucose and 5% NaCl (S. aureus). Two hundred of this bacterial suspension (10^7 cfu/ml) was added to each well and incubated for 24 h at 37° C. After 24 h the wells were carefully washed twice with phosphate-buffered saline (PBS) to remove planktonic bacteria. The washing procedure was evaluated by measuring metabolic activity of the PBS with the Alamar blue method, described in detail below. […]
(§4) We quantified the metabolic activity of biofilm with a slightly modified method previously described by Pettit et al. in Antimicrob. […] After 1 h incubation at 37° C., absorbance was recorded at 570 and 600 nm using Versamax tuneable microplate reader (Molecular Devices, Sunnyvale, Calif., USA). […]
(§5) The percent reduction of AB was calculated according to the manufacturer's formula (Invitrogen, Carlsbad, USA). We calculated mean and standard deviations (SD) of all repeated measurements. Pearson's two-tailed correlation between the AB method and the CV method (FIG. 2) was calculated on averaged data from all 6 staphylococcal strains. […]

The subject of test [9] is S. aureus PIA 90 biofilm. The experiment in a line: Biofilm metabolic activity, Alamar blue reduction. In kind it is cell-based, Staphylococcus aureus. The procedure: as §3, §4, §5
The subject of test [10] is S. haemolyticus TUH 51-07 biofilm. In words: Biofilm imaging, LIVE/DEAD staining and confocal laser scanning microscopy. Format: cell-based, Staphylococcus haemolyticus. The conditions noted are these: 24 h treatment. The procedure: One ml aliquots of MHIIB-diluted overnight culture was used to grow S. haemolyticus TUH 51-07 biofilm on plastic coverslides (Thermanox, cellculture treated on one side, NUNC, Roskilde, Denmark) in 24-well dishes (Falcon 3047, Becton Dickinson, NJ, USA) for 24 h. The coverslides were then washed carefully with PBS, moved to a new plate and treated for 24 h with tetracycline 50 mg/L and 500 mg/L, vancomycin 50 mg/L and 500 mg/L, or Compound A 50 mg/L and 500 mg/L. The coverslides were washed again with […] and stained with a LIVE/DEAD kit (Invitrogen Molecular Probes, Eugene, Oreg., USA) following the manufacturer's instructions. This stain contains SYTO 9 (green fluorescent) and propidium iodide (PI; red fluorescent), both binding to DNA. When used alone, the SYTO 9 generally stains all bacteria in a population; both those with intact and those with damaged membranes. In contrast, PI penetrates only bacteria with damaged membranes, causing a reduction in the SYTO 9 stain green fluorescence when both dyes are present. We examined treated and untreated biofilms with a Leica TCS SP5 (Leica Microsystems CMS Gmbh, Mannheim, Germany) confocal laser scanning microscope (CLSM). Images were obtained using a 63×1.2 NA HCX PL APO water immersion lens. For detection of SYTO9 (green channel), we used the 488 nm line of the argon laser and a detection bandwidth of 495-515 nm. For PI detection (red channel), we used the 561 nm line and a detection bandwidth of 615-660 nm. The two fluorescent-signals were collected sequentially at 400 Hz. Image analyses and export was performed in Leica LAS AF version 1.8.2.

The test system of test [11] is 24 h old biofilm of 6 different staphylococcal strains. In words: Biofilm metabolic activity, Alamar blue reduction. The conditions noted are these: 50 mg/L; mature biofilms from 4 out of the 6 strains tested. Format: cell-based, S. epidermidis, S. haemolyticus, S. aureus.
Method: The washed biofilms were subjected to treatment with antibiotics or SAMPs at different concentrations. Stock solutions of the tetracycline (Sigma Aldrich), vancomycin (Alpharma) and linezolid (Pfizer) were diluted in MHIIB to 5 mg/L, 50 mg/L and 500 mg/L, and rifampicin (Sigma Aldrich) was diluted in MHIIB to 0.01 mg/L, 0.1 mg/L and 1 mg/L. Trifluoroacetate salts of the SAMPs were dissolved in sterile water and diluted to 5 mg/L, 50 mg/L and 500 mg/L in MHIIB. 200 μl of antibiotics or SAMPs, in different concentrations, were added to each well and incubated for 24 h at 37° C. Positive controls were untreated biofilms only added 200 μl MHIIB. Negative controls were only 200 μl MHIIB, with no bacteria added.
We quantified the metabolic activity of biofilm with a slightly modified method previously described by Pettit et al. in Antimicrob. […] Briefly, the wells were washed twice with PBS. We then added 250 μl MHIIB with 5% Alamar blue (AB; Invitrogen, Carlsbad, Calif., USA) to each well. AB is a redox indicator which both fluoresces and changes colour in response to chemical reduction. The extent of reduction is a reflection of bacterial cell viability. After 1 h incubation at 37° C., absorbance was recorded at 570 and 600 nm using Versamax tuneable microplate reader (Molecular Devices, Sunnyvale, Calif., USA). […] The highest and lowest value of each run was excluded from the analyses, and the remaining 18 values were averaged.
We defined two levels of antimicrobial suppression of metabolic activity.
Test [12] has as its system S. aureus PIA9 biofilm. The experiment in a line: Biofilm metabolic activity, Alamar blue reduction. In kind it is cell-based, Staphylococcus aureus. The procedure: as §3, §4, §5

`CN(C)[C@@H]1C(=O)C(C(N)=O)=C(O)[C@@]2(O)C(=O)C3=C(O)c4c(O)cccc4[C@@](C)(O)[C@H]3C[C@@H]12` [TET, tetracycline]: the “susceptibility under planktonic growth” value in [1] is on record as “susceptible; also recorded: sensitive”. Besides, the MIC came to 0.5 mg/L (≈ 1.13 µM) in [2] (planktonic, SE RP62A ATCC 35984); 0.5 mg/L (≈ 1.13 µM) in test [3] (planktonic, SA PIA 9); 0.5 mg/L (≈ 1.13 µM) in test [4] (planktonic, SA PIA90); 2 mg/L (≈ 4.5 µM) in [5] (planktonic, SE TUH 08-16); 1 mg/L (≈ 2.25 µM) in [6] (planktonic, SH TUH 51-03); 0.5 mg/L (≈ 1.13 µM) in test [7] (planktonic, SH TUH 51-07). For the same compound, the “metabolic activity in biofilm assay” value in test [8] was “hardly any measurable metabolic activity”. Moreover, the “suppression of metabolic activity (AB reduction)” value in test [9] is “complete suppression”. For the same compound, in test [10] (500 mg/L), the “LIVE/DEAD staining of biofilm cells (CLSM)” value is “a significant part of the cells are still green; also recorded: still contained a significant number of living cells”.

Turning to `CN[C@H](CC(C)C)C(=O)N[C@H]1C(=O)N[C@@H](CC(N)=O)C(=O)N[C@H]2C(=O)N[C@H]3C(=O)N[C@H](C(=O)N[C@H](C(=O)O)c4cc(O)cc(O)c4-c4cc3ccc4O)[C@H](O)c3ccc(c(Cl)c3)Oc3cc2cc(c3O[C@@H]2O[C@H](CO)[C@@H](O)[C@H](O)[C@H]2O[C@H]2C[C@](C)(N)[C@H](O)[C@H](C)O2)Oc2ccc(cc2Cl)[C@H]1O` [VAN, vancomycin], the “suppression of metabolic activity (AB reduction)” value in test [11] was “strong suppression (A strong suppression was obtained if an agent, after adjusting for the negative control, at a certain concentration caused 75% reduction of AB compared to positive control)”. Besides, the “susceptibility under planktonic growth” value in test [1] is on record as “susceptible; also recorded: sensitive”. The MIC in test [2] (Staphylococcus epidermidis, ATCC35984) was found to be 4 mg/L (≈ 2.76 µM); in test [3] (Staphylococcus aureus, PIA9), 2 mg/L (≈ 1.38 µM); in test [4] (Staphylococcus aureus, PIA90) it was 2 mg/L (≈ 1.38 µM); in test [5] (Staphylococcus epidermidis, TUH0816) it was 2 mg/L (≈ 1.38 µM); in test [6] (Staphylococcus haemolyticus, TUH5103), 4 mg/L (≈ 2.76 µM); in [7] (Staphylococcus haemolyticus, TUH5107) it was 2 mg/L (≈ 1.38 µM). The resistance of biofilm entry in test [12] was “completely resistant”. Moreover, the “LIVE/DEAD staining of biofilm cells (CLSM)” value in test [10] (50 mg/L) was “predominantly green cells; also recorded: most bacteria were not killed”.

The record behind these values is US9085608B2, “Treatment of biofilms” (LYTIX BIOPHARMA AS, priority 2008, dated 2015).
